Measurements as given in US20120035187A1 (priority 2009, published 2012).

What was measured:
[1] = system: PC12-HS cells; assay: Evaluation A: neurocyte (cell)-growth-promoting action, ALAMAR BLUE; assay type: cell-based, rat; settings: for Cell survival percentage (%): cell-growth promotion; for optimum concentration for exhibiting cell-growth-promoting action: from Table 9
Method: Then, the effects of test samples were judged as follows:
The relative value of 140 to 199: Equivalent effect to that of NK-4, symbol (∘); The relative value of 200 or higher: Stronger effect than that of NK-4, symbol ([…]). • The results are in Table 6.
The relative fluorescent intensity of each well was determined by using the fluorescent intensity of each well with cells, which had been cultured by admixing with D-MEM medium containing 10% by volume of FBS without any of the compounds, and the intensity of the resulting culture was regarded as 100%. The results are expressed as cell survival percentages (%) in Table 9. […]
The test was conducted twice for each test sample in a triplicate manner and the data were averaged.
Seven compounds as in Table 17, NK-234, NK-26, NK-9815, NK-9694, NK-28 and NK-147 as well as NK-4, were each dissolved in DMSO to give a concentration of 5 mg/ml. […] The test was conducted twice for each test sample in a triplicate manner and the data were averaged.

[2] = system: hamsters with cerebellar ataxia; assay: Slant tolerance test in hamsters with cerebellar ataxia; assay type: in vivo, hamster; settings: for endurable-slant-slope-angle (degree): cerebellar ataxia hamsters; for Endurable-slant-slope-angle (°): hamster with cerebellar ataxia, agent of Example 1, 0.5 ml/hamster intraperitoneally once a day for 56 days
Excerpt: (§1) Since NK-4 was confirmed to have a neurodegenerative inhibitory action in Experiment 1, hamsters with cerebellar ataxia (cerebellar ataxia is called “cerebellar A” and hamsters with cerebellar ataxia are called “hamsters with cerebellar A”, hereinafter) as a suitable model for human neurodegenerative diseases (e.g., spinal cerebellar degeneration) were subjected to examine the influence of NK-4 administration on their behaviors and brain tissues. Twenty-five hamsters with natural mutation (Nna1 inhibition), which are known to lose Purkinje's cells after three-weeks of age and then induce a spontaneous onset of kinetic motor ataxia after seven-weeks of age (see Akita K. et al., “J. Neurogenetics”, Vol. 21, pp. 19-29, 2007), had been fed at Hayashibara Biochemical Laboratories., Inc., Okayama, Japan, were randomly allocated to the test groups 1 to 5, five heads in each group, as shown in Table 2. Prior to the onset of cerebellar A (at three-weeks of age), PBS was started to administer to the hamsters in the test group 1 at a dose of 10 ml/kg/day. Prior to the onset of cerebellar A (at three-weeks of age), NK-4 was started to be administered to the hamsters in the test groups 2 to 4 at a daily dose of 20 μg/kg, 100 μg/kg or 500 μg/kg. “IGF-1, human, a product name of insulin-like growth factor, commercialized by Assaypro LLC, MO, USA. These administered ingredients were intraperitoneally administered daily to hamsters once a day up to 10-weeks of age. The degree of symptom of cerebellar A and the improvement effect on the symptom by NK-4 were evaluated with an index of improvement in motor coordination of hamsters by conducting once a week the later described rotarod test and the slant tolerance test. At the age of 10-weeks, the hamsters were subjected to counting the falling down frequency and extracted their brains, which were then histologically evaluated. In parallel, the concentration of glutamic acid in the bloods and cerebrospinal fluids (CSF) of the hamsters was assayed. As a test group 6, five normal hamsters, with the same age as the hamsters with cerebellar A used in the test groups 1 to 5, were provided and tested similarly as the hamsters with cerebellar A in such a manner of intraperitoneally administering PBS to them at a dose of 10 ml/kg/day once a day up to 10-weeks of age.
Hamsters were placed on a slope-angle-variable-board while keeping their heads upward, followed by determining the angle for allowing the hamsters to keep staying thereupon for five seconds for use as an endurable-slant-slope-angle test (see Rivlin et al., “J. Neurosurg.”, Vol. 47, pp. 577-581, […]). The initial slope angle was set to 25 degrees and increased by 5 degrees step by step. When a tested hamster in a static condition fell down within five seconds, the slope angle was decreased by one degree step by step, followed by judging the angle that allows the hamster to keep static staying for five seconds, measuring the tolerable slant-slope-angle, and averaging the data for five heads in each group.
(§2) Similarly as in Experiment 2, 130 hamsters with cerebellar ataxia, born within the same week and 3-weeks of age, were randomly divided into 13 groups, consisting of 10 hamsters, respectively. […] The hamsters (10 heads) in the remaining one group were intraperitoneally administered from their age of 3- to 10-weeks with a sterilized 10% maltose solution (pyrogen-free) in an amount of 0.5 ml/hamster (control) once a day for 56 days At the next day after the end of the administration, body weight of each hamster was weighed, followed by performing rotarod test, slope endurance test, and counting of falling down frequency. The types of compounds applied to each group and the results are in Table 25.

[3] = system: ICR mice administered with amyloid β fragment; assay: Degeneration or defect of hippocampal pyramidal cells, mouse administered with amyloid β fragment, agents of Example 1; assay type: in vivo; settings: 4-point grade score none (0) to severe (3), average of 10 mice; agent of Example 1, 0.3 ml/head intraperitoneally once a day up to the 8th day
Method: One hundred and thirty ICR mice (commercialized by Charles Liver Laboratories Japan Inc., Kanagawa, Japan) were randomly divided into 13 groups, consisting of 10 mice in each group. Amyloid β fragment, represented by an amino acid sequence of SEQ ID NO: 1, used in Experiment 3 was aged at 37° C. for four days, and administered to the lateral ventricle of each mouse in an amount of 9 nmol/6 μl/mouse (the administration method is referred to “Brain Research”, Vol. 706, pp. 181-193 (1996)). […] The mice (10 heads) in the remaining one group were intraperitoneally administered with a sterilized 10% maltose solution (pyrogen-free) once a day up to the 8th day in an amount of 0.3 ml/mouse (control). On the 8th day after the administration, novel object recognition test (see, Japanese Patent Kokai No. 2008-193941) was performed and the average discrimination index (the ratio of prolonged seeking time for novel object to the total seeking time) as a cognitive function index were shown in Table 26. On the 9th day after the administration, the brain of the mice was anatomically isolated, prepared into tissue samples in conventional manner. Depositions of aggregation of amyloid fragment were observed by staining with Congo red or thioflavin T, and degeneration or defect of hippocampal pyramidal cells concerned with cognitive function. The degeneration or the defect of hippocampal pyramidal cells was evaluated by 4-point grade score, by regarding the condition of the control without administration of amyloid β fragment as “none (O)”, “slight (1)”, “moderate (2)”, and “sever (3)”, and the average scores of 10 mice are shown in Table 20.

[4] = system: hamsters with cerebellar ataxia; assay: Falling down frequency of hamsters with cerebellar ataxia; assay type: in vivo, hamster; settings: for Falling down frequency (frequency/min): cerebellar ataxia hamsters, 10-weeks of age; for Falling down frequency (count/min): hamster with cerebellar ataxia, agent of Example 1, 0.5 ml/hamster intraperitoneally once a day for 56 days
Excerpt: as §1
Hamsters, 10-weeks of age, were respectively housed in a breeding cage. Their falling down frequencies within one minute were counted under a macroscopic observation and the data from five heads in each group were averaged. For reference, the hamsters with cerebellar A used in this experiment are known to increase their falling down frequencies after nine weeks of age.
as §2

[5] = no compound = 100%, final concentration 12.5 ng/ml
[6] = compound concentration 25 ng/ml
[7] = compound concentration 50 ng/ml
[8] = compound concentration 100 ng/ml
[9] = compound concentration 200 ng/ml

CCN1C=CC(=CC=C(C=Cc2cc[n+](CC)c3ccccc23)c2cc[n+](CC)c3ccccc23)c2ccccc21.[I-].[I-] [NK-4]
Cell survival percentage (%) ([1]; final concentration 50 ng/ml): 154 ± 8% | Cell survival percentage (%) ([1]; final concentration 200 ng/ml): 309 ± 68% | Cell survival percentage (%) ([1]; final concentration 800 ng/ml): 254 ± 54% | Cell survival percentage (%) [1, 5]: 134 ± 8% | Action of enhancing cell growth (%) [1, 6]: 149 ± 20% | Action of enhancing cell growth (%) [1, 7]: 181 ± 79% | Action of enhancing cell growth (%) [1, 8]: 301 ± 65% | Action of enhancing cell growth (%) [1, 9]: 438 ± 48% | optimum concentration for exhibiting cell-growth-promoting action [1]: 200 ng/mL | endurable-slant-slope-angle (degree) ([2]; 20 μg/kg body weight i.p. once a day, 4-Weeks): 42.6 ± 0.5 degree | endurable-slant-slope-angle (degree) ([2]; 20 μg/kg body weight i.p. once a day, 5-Weeks): 47.2 ± 0.4 degree | endurable-slant-slope-angle (degree) ([2]; 20 μg/kg body weight i.p. once a day, 6-Weeks): 44.6 ± 0.5 degree | endurable-slant-slope-angle (degree) ([2]; 20 μg/kg body weight i.p. once a day, 7-Weeks): 47.0 ± 0.3 degree | endurable-slant-slope-angle (degree) ([2]; 20 μg/kg body weight i.p. once a day, 8-Weeks): 42.8 ± 0.5 degree | endurable-slant-slope-angle (degree) ([2]; 20 μg/kg body weight i.p. once a day, 9-Weeks): 44.4 ± 0.5 degree | endurable-slant-slope-angle (degree) ([2]; 20 μg/kg body weight i.p. once a day, 10-Weeks): 45.8 ± 0.6 degree | endurable-slant-slope-angle (degree) ([2]; 100 μg/kg body weight i.p. once a day, 4-Weeks): 41.6 ± 0.4 degree | endurable-slant-slope-angle (degree) ([2]; 100 μg/kg body weight i.p. once a day, 5-Weeks): 45.6 ± 0.2 degree | endurable-slant-slope-angle (degree) ([2]; 100 μg/kg body weight i.p. once a day, 6-Weeks): 44.4 ± 0.3 degree | endurable-slant-slope-angle (degree) ([2]; 100 μg/kg body weight i.p. once a day, 7-Weeks): 46.2 ± 0.4 degree | endurable-slant-slope-angle (degree) ([2]; 100 μg/kg body weight i.p. once a day, 8-Weeks): 47.6 ± 0.4 degree | endurable-slant-slope-angle (degree) ([2]; 100 μg/kg body weight i.p. once a day, 9-Weeks): 46.8 ± 0.3 degree | endurable-slant-slope-angle (degree) ([2]; 100 μg/kg body weight i.p. once a day, 10-Weeks): 51.6 ± 0.6 degree | endurable-slant-slope-angle (degree) ([2]; 500 μg/kg body weight i.p. once a day, 4-Weeks): 43.8 ± 0.4 degree | endurable-slant-slope-angle (degree) ([2]; 500 μg/kg body weight i.p. once a day, 5-Weeks): 46.4 ± 0.2 degree | endurable-slant-slope-angle (degree) ([2]; 500 μg/kg body weight i.p. once a day, 6-Weeks): 44.0 ± 0.6 degree | endurable-slant-slope-angle (degree) ([2]; 500 μg/kg body weight i.p. once a day, 7-Weeks): 44.6 ± 0.5 degree | endurable-slant-slope-angle (degree) ([2]; 500 μg/kg body weight i.p. once a day, 8-Weeks): 48.0 ± 0.5 degree | endurable-slant-slope-angle (degree) ([2]; 500 μg/kg body weight i.p. once a day, 9-Weeks): 47.5 ± 0.4 degree | endurable-slant-slope-angle (degree) ([2]; 500 μg/kg body weight i.p. once a day, 10-Weeks): 51.8 ± 0.4 degree | Endurable-slant-slope-angle (°) [2]: 55.8 ± 2.5 ° | Degeneration/defluxion of hippocampal pyramidal cell [3]: 1.1 | Falling down frequency (frequency/min) ([4]; 20 μg/kg body weight i.p. once a day): 4.0 ± 1.0 frequency/min | Falling down frequency (frequency/min) ([4]; 100 μg/kg body weight i.p. once a day): 1.6 ± 0.9 frequency/min | Falling down frequency (frequency/min) ([4]; 500 μg/kg body weight i.p. once a day): 1.2 ± 0.8 frequency/min | Falling down frequency (count/min) [4]: 1.1 ± 0.8 count/min

CCCCCCCN1C=CC(=CC=C(C=Cc2cc[n+](CCCCCCC)c3ccccc23)c2cc[n+](CCCCCCC)c3ccccc23)c2ccccc21.[I-].[I-] [NK-28]
Action of enhancing cell growth (%) [1, 6]: 146 ± 10% | Action of enhancing cell growth (%) [1, 7]: 111 ± 28% | Action of enhancing cell growth (%) [1, 8]: 252 ± 65% | Action of enhancing cell growth (%) [1, 9]: 470 ± 17% | Endurable-slant-slope-angle (°) [2]: 51.4 ± 2.2 ° | Degeneration/defluxion of hippocampal pyramidal cell [3]: 1.4 | Falling down frequency (count/min) [4]: 1.3 ± 0.9 count/min

CCCN1C=CC(=CC=C(C=Cc2cc[n+](CCC)c3ccccc23)c2cc[n+](CCC)c3ccccc23)c2ccccc21.[I-].[I-] [NK-234]
Action of enhancing cell growth (%) [1, 6]: 168 ± 45%

CC[n+]1ccccc1/C=C/c1ccc(N(C)C)cc1 [NK-557]
Cell survival percentage (%) ([1]; final concentration 50 ng/ml): 110 ± 6% | Cell survival percentage (%) ([1]; final concentration 200 ng/ml): 241 ± 48% | Cell survival percentage (%) ([1]; final concentration 800 ng/ml): 184 ± 42% | Cell survival percentage (%) [1, 5]: 97 ± 25% | optimum concentration for exhibiting cell-growth-promoting action [1]: 200 ng/mL | Endurable-slant-slope-angle (°) [2]: 45.1 ± 3.7 ° | Degeneration/defluxion of hippocampal pyramidal cell [3]: 2.1 | Falling down frequency (count/min) [4]: 6.5 ± 1.1 count/min

CCCCCCCCN1C=CC(=CC=C(C=Cc2cc[n+](CCCCCCCC)c3ccccc23)c2cc[n+](CCCCCCCC)c3ccccc23)c2ccccc21.[I-].[I-] [NK-147]
Action of enhancing cell growth (%) [1, 6]: 122 ± 14% | Action of enhancing cell growth (%) [1, 7]: 136 ± 30% | Action of enhancing cell growth (%) [1, 8]: 163 ± 60% | Action of enhancing cell growth (%) [1, 9]: 404 ± 76% | Endurable-slant-slope-angle (°) [2]: 49.3 ± 2.1 ° | Degeneration/defluxion of hippocampal pyramidal cell [3]: 1.5 | Falling down frequency (count/min) [4]: 1.5 ± 0.8 count/min

COc1ccc2oc(/C=C/c3ccc(N(C)C)cc3)[n+](C)c2c1 [NK-1516]
Endurable-slant-slope-angle (°) [2]: 46.5 ± 2.9 ° | Degeneration/defluxion of hippocampal pyramidal cell [3]: 1.9 | Falling down frequency (count/min) [4]: 7.1 ± 0.8 count/min

CN(C)c1ccc(/C=C/c2oc3ccccc3[n+]2C)cc1 [NK-528]
Endurable-slant-slope-angle (°) [2]: 43.9 ± 3.0 ° | Degeneration/defluxion of hippocampal pyramidal cell [3]: 2.2 | Falling down frequency (count/min) [4]: 5.2 ± 1.4 count/min
